Active and inactive are the calls of the source. The rule behind the calls is not given here.

The data set has as its system CCRIS mutagenicity, Ames/micronucleus/aberration tests. Put plainly: CCRIS mutagenicity studies.

On to `COc1cc2c(c(OC)c1OC)-c1ccc(OC)c(=O)cc1[C@@H](NC(C)=O)CC2`, for which the mutagenic call is “active; positive (ploidy changes)” (End Point: IN VITRO CHROMOSOMAL ABERRATIONS, Test System: CHINESE HAMSTER OVARY CELLS, Metabolic Activation: NONE); “inactive; negative” (End Point: IN VITRO CHROMOSOMAL ABERRATIONS, Test System: CHINESE HAMSTER OVARY CELLS, Metabolic Activation: RAT, LIVER, S-9, AROCLOR 1254); “active; positive” (End Point: IN VITRO MICRONUCLEUS, Test System: CHL/IU CELLS, Metabolic Activation: NONE); “active; positive” (End Point: IN VIVO MICRONUCLEUS, Test System: BLOOD ERYTHROCYTES, Species: MOUSE, Strain/Sex: CD-1/MALE, Route: ORAL); “active; positive” (End Point: In vitro micronucleus, Test System: Mouse lymphoma L5178Y cells, Metabolic Activation: None); “active; positive for binucleated and multinucleated cells when agent administered after” (End Point: In vivo micronucleus, Test System: Micronucleated, binucleated and multinucleated hepatocytes, Species: Mouse, Strain/Sex: ddY/Male, Route: Intravenous). Moreover, the mutagenic call is “inactive; negative” (Test System: AMES SALMONELLA TYPHIMURIUM, Strain/Indicator: TA98, Metabolic Activation: HAMSTER, LIVER, S-9, AROCLOR 1254, Method: STANDARD PLATE); “inactive; negative” (Test System: AMES SALMONELLA TYPHIMURIUM, Strain/Indicator: TA98, Metabolic Activation: NONE, Method: STANDARD PLATE); “inactive; negative” (Test System: AMES SALMONELLA TYPHIMURIUM, Strain/Indicator: TA98, Metabolic Activation: RAT, LIVER, S-9, AROCLOR 1254, Method: STANDARD PLATE); “inactive; negative” (Test System: AMES SALMONELLA TYPHIMURIUM, Strain/Indicator: TA100, Metabolic Activation: HAMSTER, LIVER, S-9, AROCLOR 1254, Method: STANDARD PLATE); “inactive; negative” (Test System: AMES SALMONELLA TYPHIMURIUM, Strain/Indicator: TA100, Metabolic Activation: NONE, Method: STANDARD PLATE); “inactive; negative” (Test System: AMES SALMONELLA TYPHIMURIUM, Strain/Indicator: TA100, Metabolic Activation: RAT, LIVER, S-9, AROCLOR 1254, Method: STANDARD PLATE). For the same compound, the mutagenic call runs as follows: (Test System: AMES SALMONELLA TYPHIMURIUM, Strain/Indicator: TA1535, Metabolic Activation: HAMSTER, LIVER, S-9, AROCLOR 1254, Method: STANDARD PLATE) “inactive; negative”; (Test System: AMES SALMONELLA TYPHIMURIUM, Strain/Indicator: TA1535, Metabolic Activation: NONE, Method: STANDARD PLATE) “inactive; negative”; (Test System: AMES SALMONELLA TYPHIMURIUM, Strain/Indicator: TA1535, Metabolic Activation: RAT, LIVER, S-9, AROCLOR 1254, Method: STANDARD PLATE) “inactive; negative”; (Test System: AMES SALMONELLA TYPHIMURIUM, Strain/Indicator: TA1537, Metabolic Activation: HAMSTER, LIVER, S-9, AROCLOR 1254, Method: STANDARD PLATE) “inactive; negative”; (Test System: AMES SALMONELLA TYPHIMURIUM, Strain/Indicator: TA1537, Metabolic Activation: NONE, Method: STANDARD PLATE) “inactive; negative”; (Test System: AMES SALMONELLA TYPHIMURIUM, Strain/Indicator: TA1537, Metabolic Activation: RAT, LIVER, S-9, AROCLOR 1254, Method: STANDARD PLATE) “inactive; negative”. The mutagenic call by setting is: (Test System: AMES SALMONELLA TYPHIMURIUM, Strain/Indicator: TA1538, Metabolic Activation: HAMSTER, LIVER, S-9, AROCLOR 1254, Method: STANDARD PLATE) “inactive; negative”; (Test System: AMES SALMONELLA TYPHIMURIUM, Strain/Indicator: TA1538, Metabolic Activation: NONE, Method: STANDARD PLATE) “inactive; negative”; (Test System: AMES SALMONELLA TYPHIMURIUM, Strain/Indicator: TA1538, Metabolic Activation: RAT, LIVER, S-9, AROCLOR 1254, Method: STANDARD PLATE) “inactive; negative”; (Test System: MOUSE LYMPHOMA, Strain/Indicator: L5178Y (TK+/TK-), Metabolic Activation: NONE) “active; positive”; (Test System: MOUSE LYMPHOMA, Strain/Indicator: L5178Y (TK+/TK-), Metabolic Activation: NONE, Method: SUSPENSION/PLATE) “inactive; negative. reevaluation of results: negative”; (Test System: MOUSE LYMPHOMA, Strain/Indicator: L5178Y (TK+/TK-), Metabolic Activation: RAT, LIVER, S-9, AROCLOR 1254, Method: SUSPENSION/PLATE) “inactive; negative. reevaluation of results: negative”. Besides, the mutagenic call is “active; positive” (Test System: MOUSE LYMPHOMA, Strain/Indicator: L5178Y(TK+/TK-), Metabolic Activation: NONE, Method: MICROWELL) and “inactive; negative” (Test System: Mouse lymphoma, Strain/Indicator: L5178Y (tk+/tk-)/Trifluorothymidine, Metabolic Activation: None, Method: Microtiter).
On to `O=C1c2ccccc2C(=O)c2c1cc(O)c(CO)c2O`, for which the mutagenic call is “active; positive” (Test System: AMES SALMONELLA TYPHIMURIUM, Strain/Indicator: TA98, Metabolic Activation: NONE, Method: PREINCUBATION); “active; positive” (Test System: AMES SALMONELLA TYPHIMURIUM, Strain/Indicator: TA98, Metabolic Activation: RAT, LIVER, S-9, AROCLOR 1254, Method: PREINCUBATION); “active; positive” (Test System: AMES SALMONELLA TYPHIMURIUM, Strain/Indicator: TA98, Metabolic Activation: RAT, LIVER, S-9, PCB, Method: PREINCUBATION); “active; positive” (Test System: AMES SALMONELLA TYPHIMURIUM, Strain/Indicator: TA100, Metabolic Activation: NONE, Method: PREINCUBATION); “active; positive” (Test System: AMES SALMONELLA TYPHIMURIUM, Strain/Indicator: TA100, Metabolic Activation: RAT, LIVER, S-9, AROCLOR 1254, Method: PREINCUBATION); “active; positive” (Test System: AMES SALMONELLA TYPHIMURIUM, Strain/Indicator: TA100, Metabolic Activation: RAT, LIVER, S-9, PCB, Method: PREINCUBATION). The mutagenic call (Test System: AMES SALMONELLA TYPHIMURIUM, Strain/Indicator: TA102, Metabolic Activation: NONE, Method: PREINCUBATION) was “active; positive”; the mutagenic call (Test System: AMES SALMONELLA TYPHIMURIUM, Strain/Indicator: TA102, Metabolic Activation: RAT, LIVER, S-9, AROCLOR 1254, Method: PREINCUBATION) is “active; positive”; the mutagenic call (Test System: AMES SALMONELLA TYPHIMURIUM, Strain/Indicator: TA102, Metabolic Activation: RAT, LIVER, S-9, Method: PREINCUBATION) is “active; positive”; the mutagenic call (Test System: AMES SALMONELLA TYPHIMURIUM, Strain/Indicator: TA104, Metabolic Activation: NONE, Method: PREINCUBATION) is “active; positive”; the mutagenic call (Test System: AMES SALMONELLA TYPHIMURIUM, Strain/Indicator: TA104, Metabolic Activation: RAT, LIVER, S-9, AROCLOR 1254, Method: PREINCUBATION) was “active; positive”; the mutagenic call (Test System: AMES SALMONELLA TYPHIMURIUM, Strain/Indicator: TA1535, Metabolic Activation: NONE, Method: PREINCUBATION) is “inactive; negative”. The mutagenic call (Test System: AMES SALMONELLA TYPHIMURIUM, Strain/Indicator: TA1535, Metabolic Activation: RAT, LIVER, S-9, AROCLOR 1254, Method: PREINCUBATION) is “inactive; negative”; the mutagenic call (Test System: AMES SALMONELLA TYPHIMURIUM, Strain/Indicator: TA1537, Metabolic Activation: NONE, Method: PREINCUBATION) was “active; positive”; the mutagenic call (Test System: AMES SALMONELLA TYPHIMURIUM, Strain/Indicator: TA1537, Metabolic Activation: RAT, LIVER, S-9, AROCLOR 1254, Method: PREINCUBATION) is “active; positive”; the mutagenic call (Test System: AMES SALMONELLA TYPHIMURIUM, Strain/Indicator: TA1537, Metabolic Activation: RAT, LIVER, S-9, Method: PREINCUBATION) is “active; positive”; the mutagenic call (Test System: AMES SALMONELLA TYPHIMURIUM, Strain/Indicator: TA1538, Metabolic Activation: NONE, Method: PREINCUBATION) was “active; positive”; the mutagenic call (Test System: AMES SALMONELLA TYPHIMURIUM, Strain/Indicator: TA1538, Metabolic Activation: RAT, LIVER, S-9, AROCLOR 1254, Method: PREINCUBATION) is “active; positive”. For the same compound, the mutagenic call (Test System: CHINESE HAMSTER V-79, Strain/Indicator: V-79/AZAGUANINE, Metabolic Activation: NONE, Method: STANDARD PLATE) was “active; positive” and the mutagenic call (Test System: UDS RODENT HEPATOCYTES, Strain/Indicator: THY INCORP, Metabolic Activation: NONE) is “active; positive”.
On to `COc1ccc2c(c1)-c1nccc3cc(OC)c(OC)c(c13)C2=O`, for which, under “Test System: AMES SALMONELLA TYPHIMURIUM, Strain/Indicator: TA98, Metabolic Activation: RAT, LIVER, S-9, PHENOBARBITAL AND BETA-NAPHTHOFLAVONE, Method: PREINCUBATION”, the mutagenic call was “active; positive”.
Consider `OC1c2cccc3ccc4cccc1c4c23`, for which, for the setting “Test System: AMES SALMONELLA TYPHIMURIUM, Strain/Indicator: TA98, Metabolic Activation: HUMAN, LIVER, CYTOSOL, PAPS, Method: PREINCUBATION”, the mutagenic call was “inactive; negative”.
